One assay addresses D(1A) dopamine receptor (Homo sapiens, UniProt P21728). In words: Inhibition of [3H]SCH-23390 binding to human Dopamine receptor D1.
Assay [1] has as its target T1, 5-hydroxytryptamine receptor 2C (Homo sapiens, UniProt P28335).
T1 sequence (P28335 whole entry): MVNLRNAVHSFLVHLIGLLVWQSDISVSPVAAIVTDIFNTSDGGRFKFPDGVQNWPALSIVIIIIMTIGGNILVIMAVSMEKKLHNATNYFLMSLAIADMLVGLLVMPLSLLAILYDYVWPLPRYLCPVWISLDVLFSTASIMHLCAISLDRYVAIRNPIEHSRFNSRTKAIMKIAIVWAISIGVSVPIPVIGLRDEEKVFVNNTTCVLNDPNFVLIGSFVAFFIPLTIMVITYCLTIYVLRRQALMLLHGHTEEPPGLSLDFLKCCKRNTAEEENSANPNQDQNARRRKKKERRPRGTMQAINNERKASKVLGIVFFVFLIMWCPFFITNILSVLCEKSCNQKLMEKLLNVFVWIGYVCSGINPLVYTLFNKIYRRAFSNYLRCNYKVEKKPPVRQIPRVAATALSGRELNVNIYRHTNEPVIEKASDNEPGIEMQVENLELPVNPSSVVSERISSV
Description: Inhibition of [3H]mesulergine binding to human 5-hydroxytryptamine 2C receptor

Another assay has as its target Histamine H1 receptor (Homo sapiens, UniProt P35367).
Assay [2] has as its target T2, Alpha-2C adrenergic receptor (Homo sapiens, UniProt P18825).
T2 sequence (P18825 whole entry): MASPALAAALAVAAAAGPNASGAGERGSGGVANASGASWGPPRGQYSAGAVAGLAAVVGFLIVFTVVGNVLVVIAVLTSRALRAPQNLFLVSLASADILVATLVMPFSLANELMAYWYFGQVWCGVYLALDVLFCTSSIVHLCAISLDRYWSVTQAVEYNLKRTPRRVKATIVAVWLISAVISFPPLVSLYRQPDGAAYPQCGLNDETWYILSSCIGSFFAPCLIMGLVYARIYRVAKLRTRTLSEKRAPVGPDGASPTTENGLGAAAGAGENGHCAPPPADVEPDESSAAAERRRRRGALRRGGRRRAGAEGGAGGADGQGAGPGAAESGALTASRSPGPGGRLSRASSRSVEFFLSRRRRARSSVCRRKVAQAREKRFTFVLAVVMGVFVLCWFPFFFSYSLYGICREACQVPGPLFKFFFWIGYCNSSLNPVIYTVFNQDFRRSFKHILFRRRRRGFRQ
Kind of assay: Inhibition of [3H]rauwolscine binding to Alpha-2C adrenergic receptor.

Assay [3] concerns the target 5-hydroxytryptamine receptor 7 (Homo sapiens, UniProt P34969).
Description: Inhibition of [3H]5-HT binding to human 5-hydroxytryptamine 7 receptor
Assay [4] has as its target Norepinephrine transporter (Rattus norvegicus, UniProt Q9WTR4). Kind of assay: Inhibition of [3H]nisoxetine binding to rat Norepinephrine transporter.
Assay [5] has as its target T3, Adrenergic receptor alpha-1 (Rattus norvegicus, UniProt P15823+P23944+P43140).
T3 sequence (P15823 whole entry): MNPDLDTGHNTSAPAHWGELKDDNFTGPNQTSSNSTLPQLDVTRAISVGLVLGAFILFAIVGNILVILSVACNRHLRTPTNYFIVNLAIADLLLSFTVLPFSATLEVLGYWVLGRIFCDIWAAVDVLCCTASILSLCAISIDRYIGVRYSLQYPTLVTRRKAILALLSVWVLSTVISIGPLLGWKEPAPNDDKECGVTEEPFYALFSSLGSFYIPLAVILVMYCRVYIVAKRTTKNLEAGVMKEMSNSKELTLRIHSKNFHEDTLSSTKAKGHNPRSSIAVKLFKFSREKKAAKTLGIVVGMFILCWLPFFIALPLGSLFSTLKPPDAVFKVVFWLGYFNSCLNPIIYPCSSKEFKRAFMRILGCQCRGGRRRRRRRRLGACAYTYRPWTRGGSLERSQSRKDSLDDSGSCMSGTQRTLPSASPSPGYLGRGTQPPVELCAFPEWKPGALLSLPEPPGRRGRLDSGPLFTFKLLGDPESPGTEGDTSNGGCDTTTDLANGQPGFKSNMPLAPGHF
T3 sequence (P23944 whole entry): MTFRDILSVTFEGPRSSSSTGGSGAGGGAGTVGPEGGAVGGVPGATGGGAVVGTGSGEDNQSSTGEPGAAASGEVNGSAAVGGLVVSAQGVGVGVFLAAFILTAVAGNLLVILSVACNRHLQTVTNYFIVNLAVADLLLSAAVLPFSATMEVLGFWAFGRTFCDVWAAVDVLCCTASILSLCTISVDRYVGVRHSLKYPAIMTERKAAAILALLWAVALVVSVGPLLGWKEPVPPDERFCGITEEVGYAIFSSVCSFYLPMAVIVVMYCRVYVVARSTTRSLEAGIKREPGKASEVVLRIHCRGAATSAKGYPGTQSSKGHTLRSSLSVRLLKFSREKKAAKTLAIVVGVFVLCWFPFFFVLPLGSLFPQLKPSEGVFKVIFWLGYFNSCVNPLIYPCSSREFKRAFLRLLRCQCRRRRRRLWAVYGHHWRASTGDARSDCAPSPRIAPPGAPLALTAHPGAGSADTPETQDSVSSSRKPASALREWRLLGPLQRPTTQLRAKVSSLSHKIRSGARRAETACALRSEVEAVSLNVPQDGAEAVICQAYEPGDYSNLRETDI
T3 sequence (P43140 whole entry): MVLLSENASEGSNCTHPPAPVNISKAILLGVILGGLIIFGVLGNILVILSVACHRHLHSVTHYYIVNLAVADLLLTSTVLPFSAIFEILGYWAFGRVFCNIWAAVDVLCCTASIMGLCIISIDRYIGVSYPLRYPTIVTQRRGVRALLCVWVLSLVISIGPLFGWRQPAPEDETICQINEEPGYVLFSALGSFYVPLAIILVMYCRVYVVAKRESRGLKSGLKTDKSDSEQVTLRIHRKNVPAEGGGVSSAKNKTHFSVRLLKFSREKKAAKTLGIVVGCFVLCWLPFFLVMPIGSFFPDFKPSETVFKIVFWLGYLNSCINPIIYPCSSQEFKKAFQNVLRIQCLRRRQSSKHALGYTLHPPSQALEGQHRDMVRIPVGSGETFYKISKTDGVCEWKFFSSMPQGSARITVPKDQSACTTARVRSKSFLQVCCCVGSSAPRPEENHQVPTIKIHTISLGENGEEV
Description: Inhibition of [3H]prazosin binding to rat Alpha-1 adrenergic receptor

Assay [6] deals with T4, Alpha-2A adrenergic receptor (Homo sapiens, UniProt P08913).
T4 sequence (P08913 whole entry): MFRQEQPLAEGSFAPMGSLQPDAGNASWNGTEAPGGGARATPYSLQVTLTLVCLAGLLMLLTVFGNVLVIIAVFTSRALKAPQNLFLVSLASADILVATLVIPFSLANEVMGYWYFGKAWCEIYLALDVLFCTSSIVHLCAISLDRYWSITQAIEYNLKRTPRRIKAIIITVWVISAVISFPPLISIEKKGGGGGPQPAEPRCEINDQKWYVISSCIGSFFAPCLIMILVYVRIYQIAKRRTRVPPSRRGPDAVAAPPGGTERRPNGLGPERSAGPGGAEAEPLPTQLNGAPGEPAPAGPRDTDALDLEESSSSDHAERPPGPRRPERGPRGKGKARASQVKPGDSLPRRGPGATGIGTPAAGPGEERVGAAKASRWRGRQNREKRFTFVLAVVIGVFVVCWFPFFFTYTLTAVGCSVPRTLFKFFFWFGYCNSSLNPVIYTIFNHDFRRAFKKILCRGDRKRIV
Description: Inhibition of [3H]rauwolscine binding to Alpha-2A adrenergic receptor

The target in the next assay is D(3) dopamine receptor (Homo sapiens, UniProt P35462).
Sequence of D(3) dopamine receptor (P35462 whole entry): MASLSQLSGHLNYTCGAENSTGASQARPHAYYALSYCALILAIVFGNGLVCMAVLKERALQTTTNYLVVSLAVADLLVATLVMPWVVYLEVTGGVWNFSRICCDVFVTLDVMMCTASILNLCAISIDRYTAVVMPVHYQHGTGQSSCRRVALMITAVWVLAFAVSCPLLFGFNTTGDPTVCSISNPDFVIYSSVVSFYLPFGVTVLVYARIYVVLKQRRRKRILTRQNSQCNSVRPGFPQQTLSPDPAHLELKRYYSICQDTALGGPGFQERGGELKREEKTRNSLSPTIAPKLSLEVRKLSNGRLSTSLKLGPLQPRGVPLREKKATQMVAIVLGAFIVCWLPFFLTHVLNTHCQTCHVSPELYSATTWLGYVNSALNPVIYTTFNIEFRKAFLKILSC
Assay [7] concerns Rattus norvegicus. Kind of assay: In vivo effective dose to inhibit tryptamine-induced bilateral convulsions in rats. The assay is classed as functional.
Assay [8] concerns Rattus norvegicus. Kind of assay: In vivo effective dose for reversal of tryptamine-induced cyanosis in rats. The assay is classed as functional.
For a further assay, the system named is Mus musculus. In words: In vivo effective dose for reversal of RO-4-1284 induced hypothermia in mouse. The assay is classed as functional.
The species entered for assay [9] is Rattus norvegicus. In words: Effective dose for antagonistic activity against m-chlorophenyl-piperazine induced anxiety in rats. It counts as functional.
Assay [10] relates to Rattus norvegicus. Kind of assay: In vivo effective dose for reversal of tryptamine-induced backward locomotion in rats. The assay is classed as functional.
The subject of assay [11] is Rattus norvegicus. In words: In vivo effective dose to inhibit apomorphine induced agitation in rats upon subcutaneous administration. It counts as functional. Conditions: sc.

Sequence of 5-hydroxytryptamine receptor 7 (P34969 whole entry): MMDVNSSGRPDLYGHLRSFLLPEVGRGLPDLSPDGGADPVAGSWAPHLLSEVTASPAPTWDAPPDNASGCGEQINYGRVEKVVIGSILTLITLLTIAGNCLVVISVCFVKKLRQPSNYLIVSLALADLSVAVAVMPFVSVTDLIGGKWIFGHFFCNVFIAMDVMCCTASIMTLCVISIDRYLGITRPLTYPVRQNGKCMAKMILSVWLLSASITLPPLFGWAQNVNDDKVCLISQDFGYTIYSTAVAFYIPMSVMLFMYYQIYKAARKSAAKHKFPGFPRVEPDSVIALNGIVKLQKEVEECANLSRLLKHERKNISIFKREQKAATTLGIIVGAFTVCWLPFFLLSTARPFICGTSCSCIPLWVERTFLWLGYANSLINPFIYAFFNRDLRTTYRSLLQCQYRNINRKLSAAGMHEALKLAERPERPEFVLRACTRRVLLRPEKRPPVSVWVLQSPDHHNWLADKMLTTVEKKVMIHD
Sequence of Histamine H1 receptor (P35367 whole entry): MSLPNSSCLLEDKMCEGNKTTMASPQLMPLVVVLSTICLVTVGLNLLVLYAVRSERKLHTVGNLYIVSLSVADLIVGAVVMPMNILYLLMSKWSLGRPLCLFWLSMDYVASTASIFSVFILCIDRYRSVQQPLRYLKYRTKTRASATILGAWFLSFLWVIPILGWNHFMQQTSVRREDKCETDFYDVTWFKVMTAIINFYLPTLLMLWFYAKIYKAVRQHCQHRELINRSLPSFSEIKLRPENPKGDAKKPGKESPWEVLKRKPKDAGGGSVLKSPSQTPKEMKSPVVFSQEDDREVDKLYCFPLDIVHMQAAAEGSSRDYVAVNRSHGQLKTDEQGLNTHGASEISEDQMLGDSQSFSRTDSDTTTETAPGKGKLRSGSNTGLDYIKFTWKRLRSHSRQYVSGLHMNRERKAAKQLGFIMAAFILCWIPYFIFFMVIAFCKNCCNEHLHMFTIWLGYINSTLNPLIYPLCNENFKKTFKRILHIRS
Sequence of Norepinephrine transporter (Q9WTR4 whole entry): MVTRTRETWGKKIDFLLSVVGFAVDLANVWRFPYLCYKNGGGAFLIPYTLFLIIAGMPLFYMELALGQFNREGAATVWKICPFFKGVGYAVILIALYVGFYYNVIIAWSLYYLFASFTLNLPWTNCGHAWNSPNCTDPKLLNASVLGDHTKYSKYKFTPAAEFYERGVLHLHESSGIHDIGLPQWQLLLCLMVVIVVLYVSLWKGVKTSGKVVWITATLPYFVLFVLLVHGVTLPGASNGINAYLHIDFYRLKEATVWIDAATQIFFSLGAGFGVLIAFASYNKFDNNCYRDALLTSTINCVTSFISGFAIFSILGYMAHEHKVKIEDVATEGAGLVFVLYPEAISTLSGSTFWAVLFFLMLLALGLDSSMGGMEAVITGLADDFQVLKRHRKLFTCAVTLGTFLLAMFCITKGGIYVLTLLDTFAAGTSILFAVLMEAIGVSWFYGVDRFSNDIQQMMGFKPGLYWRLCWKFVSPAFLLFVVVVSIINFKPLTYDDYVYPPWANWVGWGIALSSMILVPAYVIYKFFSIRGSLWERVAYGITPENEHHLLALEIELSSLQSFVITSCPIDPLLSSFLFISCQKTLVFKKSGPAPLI
Sequence of D(1A) dopamine receptor (P21728 whole entry): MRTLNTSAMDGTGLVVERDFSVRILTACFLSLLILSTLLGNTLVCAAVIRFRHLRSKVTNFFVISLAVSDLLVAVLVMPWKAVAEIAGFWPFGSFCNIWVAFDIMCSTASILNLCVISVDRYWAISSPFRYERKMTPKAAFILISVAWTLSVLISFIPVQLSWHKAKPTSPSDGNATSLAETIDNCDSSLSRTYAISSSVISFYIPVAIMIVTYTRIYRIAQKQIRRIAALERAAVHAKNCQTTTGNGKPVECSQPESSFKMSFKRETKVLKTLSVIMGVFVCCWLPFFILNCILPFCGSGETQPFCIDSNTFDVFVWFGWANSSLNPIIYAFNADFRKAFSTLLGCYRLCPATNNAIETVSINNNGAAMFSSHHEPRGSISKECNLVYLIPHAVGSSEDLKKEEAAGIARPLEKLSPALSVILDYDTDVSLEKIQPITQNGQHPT
Description for D(3) dopamine receptor: Inhibition of [125I]iodosulpiride binding to human Dopamine receptor D3
Description for Histamine H1 receptor: Inhibition of [3H]pyrilamine binding to human Histamine H1 receptor

In the case of `CN(C)C[C@@H]1CC2c3ccccc3Oc3ccc(Cl)cc3[C@H]2O1` (stereo partly drawn), the Ki (in general, a dissociation constant, usually derived from enzyme kinetics or from competition with a known ligand) at D(1A) dopamine receptor was 250 nM; in [1], 3.7 nM; on Histamine H1 receptor it was 14 nM; in [2], 677 nM; in assay [3], 92 nM; in [4], 88 nM. In addition, the Ki in assay [5] stood at 228 nM; in assay [6], 302 nM; at D(3) dopamine receptor, 45 nM.

For `CN(C)C[C@@H]1CC2c3ccccc3Sc3ccc(F)cc3[C@H]2O1` (stereo partly drawn), the Ki was determined as 19 nM at D(1A) dopamine receptor; 0.65 nM in assay [1]; 1.2 nM at Histamine H1 receptor; 78 nM in assay [2]; 34 nM in assay [3]; 2.7 nM in [4]. The inhibition constant Ki in assay [5] came to 32 nM; in assay [6], 72 nM; on D(3) dopamine receptor, 8.6 nM.

Consider `CN(C)C[C@H]1CC2c3ccccc3Sc3ccc(F)cc3[C@H]2O1` (stereo in doubt; 8d), for which the Ki on D(1A) dopamine receptor was 5.2 nM; in assay [1], < 0.42 nM; on Histamine H1 receptor, 0.52 nM; in [2], 59 nM; in [3], 6.6 nM; in [4], 1.6 nM. The values for the Ki (in assay [5]; in [6]; at D(3) dopamine receptor) were 8.8 nM, 66 nM and 1.1 nM, respectively.

In the case of `CN1CCN2c3ccccc3Cc3ccccc3C2C1` (stereo not drawn) [MIANSERIN], the ED50 (in general, the dose that gives a 50% effect, or the effect in half of the subjects) in the assay with Rattus norvegicus [7] is 0.24 mg/kg; in the assay on Rattus norvegicus [8], 0.18 mg/kg; in the assay on Mus musculus it was > 40 mg/kg; in the assay listed under Rattus norvegicus [9] it was 1.26 mg/kg; in the assay with Rattus norvegicus [10], 0.55 mg/kg; in the assay with Rattus norvegicus [11], > 10 mg/kg. Besides, the results for the Ki in assay [2] and in assay [4] were 3.8 nM and 101 nM, respectively.

Turning to `CN(C)C[C@H]1CC2c3ccccc3Oc3ccc(Cl)cc3[C@H]2O1` (stereo partly drawn), the Ki on D(1A) dopamine receptor was 83 nM; in assay [1] it was 2.4 nM; on Histamine H1 receptor, 4.3 nM; in assay [2] it was 26 nM; in assay [3] it was 251 nM; in assay [4], 9.4 nM. In addition, the results for the Ki (in [5]; in [6]; at D(3) dopamine receptor) were 35 nM, 10 nM and 251 nM, respectively.

For the molecule `Cc1nc2n(c(=O)c1CCN1CCC(c3noc4cc(F)ccc34)CC1)CCCC2` [RISPERIDONE], the ED50 in the assay on Rattus norvegicus [7] was 0.037 mg/kg; with Rattus norvegicus [8] it was 0.002 mg/kg; with Mus musculus, > 10 mg/kg; in the assay filed under Rattus norvegicus [9], > 0.31 mg/kg; in the assay on Rattus norvegicus [10], > 10 mg/kg; in the assay with Rattus norvegicus [11] it was 0.17 mg/kg. For the same molecule, the Ki in [4] was > 5450 nM.

Turning to `CN(C)C[C@H]1C[C@@H]2c3ccccc3Sc3ccc(F)cc3[C@H]2O1`, the Ki on D(1A) dopamine receptor was 22 nM; in assay [1], 1.5 nM; on Histamine H1 receptor, 1.4 nM; in [2] it was 93 nM; in assay [3], 6.5 nM; in assay [4], 40 nM. Also, the Ki in assay [5] is 41 nM; in assay [6], 156 nM; at D(3) dopamine receptor, 15 nM. The ED50 is 0.08 mg/kg in the assay with Rattus norvegicus [7]; 0.05 mg/kg in the assay with Rattus norvegicus [8]; 2 mg/kg in the assay on Mus musculus; > 2.5 mg/kg in the assay filed under Rattus norvegicus [9]; > 2.5 mg/kg in the assay on Rattus norvegicus [10]; 1.2 mg/kg in the assay with Rattus norvegicus [11].

As to `CN(C)C[C@H]1CC2c3ccccc3Sc3ccc(F)cc3[C@H]2O1` (stereo in doubt; (-)-8d), the Ki on D(1A) dopamine receptor came out at 3 nM; in assay [1], 0.21 nM; on Histamine H1 receptor, 0.6 nM; in [2], 73 nM; in assay [3], 6.2 nM; in assay [4], 2 nM. Further, the Ki in assay [5] turned out to be 7.5 nM; in assay [6], 79 nM; at D(3) dopamine receptor, 19 nM. Further, the ED50 in the assay on Rattus norvegicus [7] was 0.0079 mg/kg; in the assay on Rattus norvegicus [8], 0.013 mg/kg; with Mus musculus it was 0.025 mg/kg; in the assay filed under Rattus norvegicus [9] it was > 0.63 mg/kg; with Rattus norvegicus [10], 0.32 mg/kg; in the assay on Rattus norvegicus [11] it was 0.13 mg/kg.

With `CN(C)C[C@H]1C[C@@H]2c3ccccc3Cc3ccccc3[C@H]2O1`, the Ki on Histamine H1 receptor is 0.43 nM; in [2], 69 nM; in [3] it was 13 nM; in [4], 7.8 nM; in assay [5] it was 108 nM; in assay [6], 126 nM. The molecule further showed a Ki on D(3) dopamine receptor of 84 nM. For the same molecule, the ED50 turned out to be 0.02 mg/kg in the assay with Rattus norvegicus [7]; 0.02 mg/kg with Rattus norvegicus [8]; 0.2 mg/kg in the assay with Mus musculus; 0.18 mg/kg in the assay filed under Rattus norvegicus [9]; 1.2 mg/kg in the assay with Rattus norvegicus [10]; 2 mg/kg in the assay on Rattus norvegicus [11].

For `CN(C)C[C@H]1CC2c3ccccc3Oc3ccc(Br)cc3[C@H]2O1` (stereo partly drawn), the Ki at D(1A) dopamine receptor is 154 nM; in [1], 8.9 nM; on Histamine H1 receptor, 42 nM; in assay [2], 742 nM; in assay [3], 35 nM; in assay [4], 382 nM. For the same molecule, the Ki was 234 nM in assay [5], 407 nM in assay [6] and 95 nM on D(3) dopamine receptor.

For the origin of these results see ChEMBL document CHEMBL1142715, “Discovery of new tetracyclic tetrahydrofuran derivatives as potential broad-spectrum psychotropic agents” (J Med Chem, 2005).
